We go through two compounds from patent publication US8268854B2, “Aza-beta-carbolines and methods of using same” (The UWM Research Foundation, Inc., priority 2008, dated 2012).

Where a name gives a salt, the structure may show the parent alone. Read-outs that look alike come from different tables or passages of the source.

In one assay the target is T1, Dopamine D5 (Homo sapiens, UniProt P21918).
T1 construct: expressed in transfected cells
As to the kind of experiment: PDSP primary radioligand binding assay. The conditions noted are these: compound 10 μM. On the procedure:
(§1) Primary and secondary radioligand binding assays are performed. In general, the primary assay is run at very high ligand (compound) concentration as a broad screen to determine whether a compound binds to a particular receptor. If greater than 50% inhibition at 10 μM (high concentration of compound) at a particular receptor is determined, a secondary assay is performed on that receptor. Data from the secondary assay is the binding affinity (Ki value).
(§2) A solution of the compound to be tested is prepared as a 1 mg/ml stock in Standard Binding Buffer or dimethyl sulfoxide (DMSO) according to its solubility. A similar stock of a reference compound (positive control) is also prepared.
(§3) Radioligand (radioligands are presented in Table 39) is diluted to five times the assay concentration (assay concentrations are presented in Table 39) in Standard Binding Buffer. Typically, the assay concentration of radioligand is a value between one half the KD and the KD of a particular radioligand at its target. Aliquots (50 μL) of radioligand are dispensed into the wells of a 96-well plate (see FIG. 11) containing 100 μL of Standard Binding Buffer (Table 40). Then, duplicate 50 μL aliquots of the test and reference compound dilutions are added (see FIG. 11). According to FIG. 11, increasing concentrations (from left to right) of reference or test compound (diluted in buffer) are added (50 μL aliquots, in duplicate) from 5× stock solutions to wells containing 50 μL of 5× radioligand (fixed concentration, prepared in buffer) and 100 μL of buffer. Finally, 50 μL of receptor-containing membrane homogenate (5× suspension in buffer) are added to achieve a final assay volume of 250 μL. Final concentrations of reference or test compound are listed above the columns in FIG. 11.
(§4) Finally, crude membrane fractions of cells expressing recombinant target (prepared from 10 cm plates by harvesting phosphate buffered saline (PBS)-rinsed monolayers, resuspending and lysing in chilled, hypotonic 50 mM Tris-HCl, pH 7.4, centrifuging at 20,000×g, decanting the supernatant and storing at −80° C.; typically, one 10 cm plate provides sufficient material for 24 wells) are resuspended in 3 mL of chilled Standard Binding Buffer and homogenized by several passages through a 26 gauge needle, and then 50 μL are dispensed into each well.
(§5) The 250 μL reactions are incubated at room temperature and shielded from light (to prevent photolysis of light-sensitive ligands) for 1.5 hours, then harvested by rapid filtration onto Whatman GF/B glass fiber filters pre-soaked with 0.3% polyethyleneimine using a 96-well Brandel harvester. Four rapid 500 μL washes are performed with chilled Standard Binding Buffer to reduce non-specific binding. Filters are placed in 6 mL scintillation tubes and allowed to dry overnight. The next day, 4 mL of EcoScint scintillation cocktail (National Diagnostics) are added to each tube. The tubes are capped, labeled, and counted by liquid scintillation counting. For higher throughput assays, bound radioactivity is harvested onto 0.3% polyethyleneimine-treated, 96-well filter mats using a 96-well Filtermate harvester. The filter mats are dried, then scintillant is melted onto the filters, and the radioactivity retained on the filters is counted in a Microbeta scintillation counter.
(§6) Raw data (dpm) representing total radioligand binding (i.e., specific+non-specific binding) are plotted as a function of the logarithm of the molar concentration of the competitor (i.e., test or reference compound). […]

The target in a further assay is T2, Dopamine receptor D4 (Homo sapiens, UniProt P21917).
T2 construct: expressed in transfected cells
T2 sequence (P21917 1-419): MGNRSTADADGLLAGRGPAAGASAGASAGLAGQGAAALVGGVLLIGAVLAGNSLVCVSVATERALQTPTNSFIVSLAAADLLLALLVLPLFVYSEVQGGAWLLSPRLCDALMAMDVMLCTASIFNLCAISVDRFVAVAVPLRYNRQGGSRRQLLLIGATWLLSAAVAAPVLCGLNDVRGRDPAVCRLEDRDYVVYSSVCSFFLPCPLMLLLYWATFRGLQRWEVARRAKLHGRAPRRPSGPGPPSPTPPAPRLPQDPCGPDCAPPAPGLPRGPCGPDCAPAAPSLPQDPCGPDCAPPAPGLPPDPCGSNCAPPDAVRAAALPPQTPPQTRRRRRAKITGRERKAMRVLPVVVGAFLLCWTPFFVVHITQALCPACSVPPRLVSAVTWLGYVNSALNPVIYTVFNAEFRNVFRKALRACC
As to the kind of experiment: PDSP primary radioligand binding assay. The conditions noted are these: compound 10 μM, n=4, read-out: mean percentage inhibition, Dopamine receptor D4. On the procedure:
as §1, §2, §3, §4, §5, §6

The target in the next assay is T3, Histamine receptor H2 (Homo sapiens, UniProt P25021).
T3 construct: expressed in transfected cells
Briefly: PDSP primary radioligand binding assay. The conditions noted are these: compound 10 μM; for mean percentage inhibition, Histamine receptor H2: n=4, hydrochloride, 10 µM. Here is the method:
as §1, §2, §3, §4, §5, §6

A further assay deals with T4, Dopamine receptor D3 (Rattus norvegicus, UniProt P19020).
T4 construct: expressed in transfected cells
As to the kind of experiment: PDSP primary radioligand binding assay. The conditions noted are these: compound 10 μM; for inhibition at 10 µM: n=4, read-out: mean percentage inhibition, Dopamine receptor D3. Here is the method: as §1, §2, §3, §4, §5, §6

Assay [1] has as its target T5, GABAA receptor α5 subtype with β2 and γ2 subunits (Homo sapiens, UniProt P18507+P31644).
T5 construct: expressed in transfected cells; host or cells: HEKT cell line, transient transfection with Fugene 6
As to the kind of experiment: Competition binding assay with [3H]flunitrazepam. An excerpt: (§7) Bound radioactivity is quantified by liquid scintillation counting.

Assay [2] addresses T6, GABAA receptor α3 subtype with β2 and γ2 subunits (Homo sapiens, UniProt P18507+P34903).
T6 construct: expressed in transfected cells; host or cells: HEKT cell line, transient transfection with Fugene 6
As to the kind of experiment: Competition binding assay with [3H]flunitrazepam.
Text: as §7

Assay [3] has as its target T7, GABAA receptor α2 subtype with β2 and γ2 subunits (Homo sapiens, UniProt P18507+P47869).
T7 construct: expressed in transfected cells; host or cells: HEKT cell line, transient transfection with Fugene 6
As to the kind of experiment: Competition binding assay with [3H]flunitrazepam.
Text: as §7

Assay [4] concerns the target T8, GABAA receptor α1 subtype with β2 and γ2 subunits (Homo sapiens, UniProt P14867+P18507).
T8 construct: expressed in transfected cells; host or cells: HEKT cell line, transient transfection with Fugene 6
Briefly: Competition binding assay with [3H]flunitrazepam.
Text: as §7

As a reminder, the inhibition is the change of the read-out against control, counted positive when it falls.

Regarding `CCCOc1cc2c(cn1)[nH]c1ccncc12` [Compound 2, 8-Propoxypyridino[4′,3′-5,4]pyrrolo[3,2-c]pyridine hydrochloride], at Dopamine D5, the “binding at 10 μM, Dopamine D5” value is on record as less than 50%. Further, the inhibition at 10 µM was more than 50% at Dopamine receptor D4; less than 50% at Histamine receptor H2 (n=4, read-out: mean percentage inhibition, Histamine receptor H2); less than 50% on Dopamine receptor D3. Further, the “mean percentage inhibition, Histamine receptor H2” value on Histamine receptor H2 was 31.4%. Moreover, the “mean percentage inhibition, Dopamine receptor D3” value at Dopamine receptor D3 (n=4, hydrochloride, 10 µM) is given as 31.8%. The Ki in assay [1] ([3H]flunitrazepam, α5β2γ2, HEKT cells, read-out: GABAA RECEPTOR BINDING α5) came to 12.2 nM; in assay [2] ([3H]flunitrazepam, α3β2γ2, HEKT cells, read-out: GABAA RECEPTOR BINDING α3) it was 4.04 nM; in assay [3] ([3H]flunitrazepam, α2β2γ2, HEKT cells, read-out: GABAA RECEPTOR BINDING α2), 0.33 nM; in assay [4] ([3H]flunitrazepam, α1β2γ2, HEKT cells, read-out: GABAA RECEPTOR BINDING α1), 9.86 nM.

As to `CCCOc1cc2c(cn1)[nH]c1cnccc12` [Compound 4, 3-Propoxy pyridino[4′,3′-4,5]pyrrolo[2,3-c]pyridine hydrochloride], at Dopamine D5, the “binding at 10 μM, Dopamine D5” value is listed as less than 50%. For the same compound, the inhibition at 10 µM at Dopamine receptor D4 is -18.1%; at Dopamine receptor D3 it was 24.1%. In addition, the “mean percentage inhibition, Histamine receptor H2” value on Histamine receptor H2 was 26.8%. Besides, the Ki in assay [1] amounted to 43.1 nM; in assay [2], 1.49 nM; in assay [3], 6.31 nM; in assay [4], 5.79 nM.
